Measured values as given in US20070190191A1, “Use of geraniol in antitumoral therapy” (priority 2003, published 2007).
Like-named read-outs stand apart in the source and are kept apart here.

Tests used:
[1] = system: Caco-2 cells; assay: Electron microscopy of Caco-2 cell morphological differentiation; assay type: cell-based, human; conditions: confluent Caco-2 cells (7 days after seeding) treated 4 days; geraniol 400 μM, 5-FU 5 μM
Experimental: Caco-2 and SW620 cells were obtained from the European Collection of Animal Cell Culture (CERDIC, Sophia Antipolis, France) and were cultured in 75-cm^2 Falcon flasks containing Dulbecco's modified Eagle's medium (DMEM) and 25 mM glucose supplemented with 10% heat-inactivated horse serum, 100 U/ml penicillin, and 100 μg/ml streptomycin. Cells were incubated at 37° C. in a humidified atmosphere of 5% CO2 and subcultured after trypsinization (0.5% trypsin/2.6 mM EDTA). They were used for up to 30 to 40 passages.
(§1) In all experiments, cells were seeded at 6×10^5 cells on culture dishes (100 mm in diameter), or at 4500 cells/well in 96-well plates. Caco-2 and SW620 cells were grown in DMEM supplemented with 3% horse serum, 5 μg/ml transferrin, 5 ng/ml selenium, and 10 μg/ml insulin (TSI defined medium; Invitrogen, SARL, Cergy-Pontoise, France). Geraniol (Sigma-Aldrich, Saint Louis, Mo.) was dissolved in absolute ethanol, and 5-FU (Teva Pharmachemie B.V., Mijdrecht, The Netherlands) was diluted in PBS at a final concentration of 50 mg/ml. The compounds were added to the culture medium 24 h or 7 days after cell seeding (final concentration of ethanol, 0.1%).
In all experimental conditions, culture medium, geraniol, and 5-FU were replaced every 24 h. […]

[2] = system: growing Caco-2 cells; assay: Cell growth (sulforhodamine B), exponentially growing Caco-2 cells; assay type: cell-based, human
Experimental: as §1
(§2) Cells were seeded in 96-well plates and incubated for different times. Cell growth was stopped by addition of 50 μl of trichloroacetic acid (50%, v/v), and the protein content of each well was determined by staining with sulforhodamine B (Skehan et al., 1990): Absorbance was determined at 490 nm.
(§3) The comparative effects of geraniol and 5-FU were studied on exponentially growing Caco-2 and SW620 cells. Cells were cultured as described in Example 1. […]
(§4) The effects of graded doses of 5-FU alone or in combination with geraniol were determined. […]

[3] = system: Caco-2 cells; assay: Apoptosis: DNA fragmentation ladder and annexin V-FITC labeling; assay type: cell-based, human; conditions: exponentially growing and confluent Caco-2 cells, 24 h; 5-FU 5 μM, geraniol IC30 400 μM
Experimental: After trypsinization, cells were collected by centrifugation and stored at −80° C. Apoptotic DNA was separated from genomic DNA, using the Suicide Track DNA ladder kit (Oncogene Research Products, Cambridge, Mass.). DNA fragments were separated by electrophoresis and stained with ethidium bromide. Apoptosis was further tested by evaluating phosphatidylserine membrane externalization by measuring annexin V-conjugated fluorescein isothiocyanate (FITC) binding using an Annexin V-FITC kit (Medsystems Diagnostics GmbH, Vienna, Austria). Briefly, cells were washed in cold PBS without calcium and, for each sample, 5×10^5 cells were resuspended in 100 μl of reaction buffer (10 μl of binding buffer 10-fold concentrated, 10 μl of propidium iodide, 1 μl of annexin V-FITC, and 79 μl of deionized water. After incubation for 15 min in the dark at room temperature, each sample was diluted with binding buffer to obtain an appropriate final volume for flow cytometry.

[4] = system: SW620 cells; assay: Cell growth (sulforhodamine B), growing SW620 cells; assay type: cell-based; conditions: Homo sapiens, SW-620, 192 h, 8 days treatment, in the combination geraniol at IC30, read-out: IC50 5-FU, SW620
Experimental: as §1, §2, §3, §4

[5] = system: human colonic tumors TC-118; assay: Growth of 5-FU-resistant human colonic tumors transplanted in nude mice; assay type: in vivo, Swiss nu/nu mice; conditions: day 14
Experimental: The effect of geraniol and 5-FU were evaluated in vivo on the growth of 5-FU-resistant human colonic tumors ([…]) transplanted in Swiss nu/nu mice. TC 118 is the hepatic metastasis of a primary human colorectal tumor is used as xénogreffe. Fresh fragments of the tumor are implanted in the subcutaneous tissue of female Swiss nulnu mice of from 5 to 6 weeks. The appearance of the tumor is watched by a bi-weekly exam of mice and the time of appearance is registered. Tumors are detected by palpation as soon as they measure approximately 3×3 mm (that is approximately 15 mm^3). […] Tumors are measured with a calliper rule, 3 times a week, until the sacrifice of the animal. Two perpendicular diameters are measured and the volumes of tumors are calculated according to the following equation: V=A×B^2/2 where A represents the large diameter and B the small diameter. The relative tumoral volume (VTR) is calculated according to the formula: VTR=Volume at day D/Initial volume […] When these molecules were given in combination, they were injected simultaneously. A control group was treated with excipient (NaCl 0.9%). The mean value of the VTR was calculated for every group on every day corresponding to the measure of tumors. The curves of tumoral growth were obtained in every experimental group or for every individual tumor by reporting the values of the VTR as a function of time (expressed in days after the beginning of the treatment). The measures were individually recorded, allowing a follow-up of the tumoral growth. […] Mice not presenting tumors were sacrificed at the same time. The percentage of inhibition of the tumoral growth was calculated at day 14 for the various treatments, according to the formula: (VTR of treated mice/VTR of control mice)×100. Results

[6] = system: confluent Caco-2 cells; assay: Cell growth (sulforhodamine B), confluent Caco-2 cells; assay type: cell-based, human; conditions: for cell loss: confluent Caco-2, 8 days treatment, geraniol 400 μM (IC30), 5-FU 1 μM
Experimental: as §1
In all experimental conditions, culture medium, geraniol, and 5-FU were replaced every 24 h. Cells were harvested after various times, washed three times with phosphate-buffered saline (PBS) (pH 7.2), and kept at −70° C. until assays were performed.
as §2
The effects of increasing doses of 5-FU alone or in combination with geraniol were determined after treatment for 8 days. […] Geraniol and 5-FU were replaced every 24 h.
Statistical differences between control and geraniol-treated cells were evaluated using the Student's t test. Differences were considered to be significant for values of p<0.05.

[7] = system: Caco-2 cells; assay: Caco-2 cell growth with CPT-11 and geraniol; assay type: cell-based; conditions: Homo sapiens, 192 h, Caco-2, 8 days treatment
Experimental: as §2
The effect of various doses of CPT-11 alone or in combination with geraniol was determined after 8 days of treatment of Caco-2 cells. Concentrations of CPT-11 of from 0.2 to 0.8 μM were tested and geraniol was used at a concentration which induces a 10% inhibition of the cell growth (IC10).

[8] = system: Caco-2 cells; assay: Brush-border membrane hydrolase assays (functional differentiation); assay type: cell-based; conditions: Homo sapiens, 168 h, 400 μM geraniol, Caco-2 at confluency (7 days after seeding), brush-border membranes
Experimental: Brush-border membranes were isolated as described by Schmitz et al. (1973). Sucrase activity was determined according to Messer and […] (1966) and lactase activity according to Koldovsky et al. (1969). Alkaline phosphatase activity was assayed by the method of Garen and […] (1960), and N-aminopeptidase activity was determined according to Maroux et al. (1973).

[9] = system: Caco-2 cells; assay: Cytotoxicity by LDH release into the culture medium; assay type: cell-based, human; conditions: confluent Caco-2 (7 days after seeding), 4 days treatment, geraniol alone 400 μM
Experimental: To determine cytotoxicity, cells (4×10^5/well) were seeded on culture dishes (100 nm diameter) and incubated in DMEM culture medium supplemented with 3% FCS. On the 7th day after seeding, cells were incubated with 5-FU (5 μM) alone or together with geraniol (IC30: 400 μM) and 5-FU for 1, 2, 3, and 4 days. Then, cytotoxicity was assessed by determining the release of lactate dehydrogenase (LDH) (Skehan et al., 1990) into the culture medium using the Cyto Tox R nonradioactive cytotoxicity assay kit (Promega, Madison, Wis.).

O=c1[nH]cc(F)c(=O)[nH]1 [5-FU, 5-fluorouracil] was tested, and the “brush-border microvilli (transmission electron microscopy)” value [1] was “did not modify brush-border membranes”, the IC50 ([2]; Homo sapiens, Caco-2, 8 days treatment from 24 h after seeding, in the combination geraniol at its IC30 (200 μM), read-out: IC50 5-FU, Caco-2 Growing) was 0.4 µM and the “annexin V labeling (flow cytometry)” value [3] was “absence of annexin V labeling”. For the same compound, the “apoptotic DNA fragmentation ladders” value [3] was “did not exhibit apoptotic DNA fragmentation ladders”, the IC50 [4] was 2 µM and the “inhibition of the tumoral growth” value ([5]; 5-FU alone 20 mg/kg/day i.p. for 5 days) was “no effect”. For the same compound, the “inhibition of the tumoral growth” value ([5]; 5-FU alone 40 mg/kg/day i.p. for 5 days) was 30%, the IC50 ([6]; Homo sapiens, Caco-2, 192 h, 8 days treatment, in the combination geraniol at its IC30 (400 μM), read-out: IC50 5-FU, Caco-2 Confluent) was 25 µM and the cell loss [6] was 25%.
For CCc1c2c(nc3ccc(OC(=O)N4CCC(N5CCCCC5)CC4)cc13)-c1cc3c(c(=O)n1C2)COC(=O)[C@]3(O)CC [CPT-11, irinotecan, reference compound], the IC50 ([7]; in the combination geraniol at IC10, read-out: IC50 CPT-11) was 0.7 µM.
For CC(C)=CCC/C(C)=C/CO [geraniol], the “brush-border microvilli (transmission electron microscopy)” value [1] was “microvilli were scarce, and they were shorter”, the IC30 of geraniol ([2]; growing Caco-2 cells) was 200 µM and the inhibition at 400 µM ([8]; read-out: inhibition of the increase in alkaline phosphatase activity) was ~50%. For the same compound, the inhibition at 400 µM ([8]; read-out: inhibition of the increase in aminopeptidase activity) was ~50%, the inhibition at 400 µM ([8]; read-out: inhibition of the increase of lactase activity) was ~70% and the inhibition at 400 µM ([8]; read-out: inhibition of the increase of sucrase activity) was ~90%. For the same compound, the IC50 ([7]; in the combination CPT-11 at IC10, read-out: IC50 Geraniol) was 200 ± 0.03 µM, the “cytotoxic effect (LDH release)” value [9] was “no cytotoxic effect” and the “inhibition of the tumoral growth” value ([5]; geraniol alone 150 mg/kg/day i.p. for 5 days) was 26%. It also gave an IC30 of geraniol ([6]; Caco-2 cells at confluency) of 400 µM and a cell loss [6] of 30%.
